Values joined by “and” are separate entries in the source; they are usually repeats but may differ in a detail not shown here. Identical values can stand only once.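 Five concentrations, 48 hours, 96-well plates. GI50 marks 50% less growth. TGI denotes the concentration required for complete inhibition of growth.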
Experiments:
Test in all cases: NCI anticancer screen, dose series, 48 h
A549 NSCLC = test system: A549 NSCLC
TK-10 renal = test system: TK-10 renal
UO-31 renal = test system: UO-31 renal
KM12 colon = test system: KM12 colon
M14 melanoma = test system: M14 melanoma
OVCAR-3 ovarian = test system: OVCAR-3 ovarian
HCT-15 colon = test system: HCT-15 colon
BT-549 breast = test system: BT-549 breast
CCRF-CEM leukemia = test system: CCRF-CEM leukemia
LOX IMVI melanoma = test system: LOX IMVI melanoma

SMILES | TGI (A549 NSCLC) | TGI (TK-10 renal) | TGI (UO-31 renal) | TGI (KM12 colon) | TGI (M14 melanoma) | TGI (OVCAR-3 ovarian) | TGI (HCT-15 colon) | TGI (BT-549 breast) | TGI (CCRF-CEM leukemia) | TGI (LOX IMVI melanoma) | GI50 (A549 NSCLC) | GI50 (UO-31 renal) | GI50 (KM12 colon) | GI50 (M14 melanoma) | GI50 (CCRF-CEM leukemia) | GI50 (OVCAR-3 ovarian) | GI50 (HCT-15 colon) | GI50 (LOX IMVI melanoma) | GI50 (BT-549 breast) | GI50 (TK-10 renal)
CC(C)(C)NCc1cc(C(C)(C)C)cc(-c2ccc(Cl)cc2)c1O | 32.4 µM | 26 µM | 15.1 µM | 27.1 µM | 28.8 µM | 29.5 µM | 25.7 µM | 27.9 µM |  |  |  |  |  |  |  |  |  |  |  | 
Cc1ccc(S(=O)(=O)NC(=O)NC23CC4CC(CC(F)(C4)C2)C3)cc1 | > 100 µM | > 100 µM | > 100 µM | > 100 µM | > 100 µM | > 100 µM |  |  | > 100 µM | > 100 µM |  |  |  |  |  |  |  |  |  | 
CO/C1=C\C(C)=C\C(C)C(O)C(C)C/C(C)=C/C=C/C(OC)C(C(C)C(O)C(C)C2(O)CC(O)C(C)C(C(C)C)O2)OC1=O (configuration not stated) | 0.0222 µM and 0.0105 µM | 29.5 µM | 0.0587 µM and 0.0234 µM | 15 µM | 0.00127 µM |  | 11.2 µM |  |  | 2.64e-05 µM |  |  |  |  |  |  |  |  |  | 
COc1cccc(C(=O)N2CCc3ccccc32)c1OC | > 100 µM | > 100 µM | > 100 µM | > 100 µM | > 100 µM | > 100 µM | 61.9 µM |  | > 100 µM | > 100 µM |  |  |  |  |  |  |  |  |  | 
CCOC(=O)C1(Cc2ccccc2)CCCCCN1 (configuration not stated) | > 100 µM | > 100 µM | > 100 µM |  | > 100 µM | > 100 µM | > 100 µM |  |  | > 100 µM |  |  |  |  |  |  |  |  |  | 
NC(=O)N/N=C/C(/C=N/NC(N)=O)[N+](=O)[O-] | > 100 µM | > 100 µM |  | > 100 µM | > 100 µM | > 100 µM |  |  | > 100 µM | > 100 µM |  |  |  |  |  |  |  |  |  | 
C1CCN(c2nsc(N3CCCCC3)n2)CC1 | > 100 µM | > 100 µM | > 100 µM | > 100 µM | > 100 µM |  | > 100 µM |  | > 100 µM | > 100 µM |  |  |  |  |  |  |  |  |  | 
Nc1nnc2cc(Cl)ccc2n1 | > 100 µM |  | > 100 µM | > 100 µM | > 100 µM | > 100 µM | > 100 µM |  | > 100 µM | > 100 µM | 73.2 µM | 30.2 µM | > 100 µM | > 100 µM | > 100 µM | > 100 µM | > 100 µM | > 100 µM |  | 
O=C(O)/C(=C/c1c(O)ccc2ccccc12)c1csc(-c2nc(/C(=C\c3c(O)ccc4ccccc34)C(=O)O)cs2)n1 | 55.5 µM | 58 µM | 6.87 µM | 53.2 µM | 25.4 µM | 31.3 µM | 39 µM |  | 31.4 µM | 43.4 µM |  |  |  |  |  |  |  |  |  | 
COc1ccc2c(c1OC)C1=C(C2=O)c2cc3c(cc2CCN1)OCO3 | > 100 µM | > 100 µM | > 100 µM | 78 µM | > 100 µM | 90.7 µM | > 100 µM |  | > 100 µM | 61.1 µM |  |  |  |  |  |  |  |  |  | 
Nc1ccc2c(c1)NCCN2 | > 100 µM | > 100 µM | > 100 µM | > 100 µM | > 100 µM | > 100 µM | > 100 µM | > 100 µM |  | > 100 µM |  |  |  |  |  |  |  |  |  | 
O=C1C[C@@H]2C(COC(=O)c3ccccc3)N(OCc3ccccc3)C[C@@H]2O1 (some centres not stated) | > 100 µM | > 100 µM | > 100 µM | > 100 µM | > 100 µM | > 100 µM | > 100 µM |  | > 100 µM | > 100 µM |  |  |  |  |  |  |  |  |  | 
O=C(c1ccc2ncc(-c3nc(NC4CC4)ncc3F)n2c1)N1CCOCC1 | > 100 µM |  | 13.6 µM | 11.8 µM | 4.07 µM | 7.22 µM | > 100 µM | 5.29 µM | 4.74 µM | 41.4 µM | 2.48 µM | 2.66 µM | 2.28 µM | 1.9 µM | 1.72 µM | 2.21 µM | 2.51 µM | 1.11 µM | 1.58 µM | 
COc1cc2noc(-c3ccccc3)c2cc1OC | > 100 µM | > 100 µM | > 100 µM | > 100 µM | > 100 µM |  | > 100 µM |  | > 100 µM | > 100 µM |  |  |  |  |  |  |  |  |  | 
CC/C=C\C[C@H](O)C/C=C1/C(=O)C=C[C@@H]1C/C=C\CCCC(=O)N(C)C | 11.3 µM | 7.48 µM | 2.93 µM | 4.03 µM | 11 µM | 1.79 µM | 5.87 µM |  | 5.61 µM | 1.54 µM | 3.01 µM | 1.41 µM | 0.709 µM | 2.79 µM | 0.817 µM | 0.471 µM | 1.29 µM | 0.356 µM |  | 2.61 µM
CCOC(=O)c1[nH]c(-c2ccc(Cl)cc2)cc1-c1cccnc1 | > 100 µM | > 100 µM | > 100 µM | > 100 µM |  | > 100 µM | > 100 µM | 1.46 µM | > 100 µM | > 100 µM | 0.812 µM | 1.02 µM | 0.595 µM |  | 0.391 µM | 0.349 µM | 0.437 µM | 0.659 µM | 0.27 µM | 0.972 µM
COCC(=O)CP(=O)(OC)OC | > 100 µM | > 100 µM | > 100 µM | > 100 µM | > 100 µM | > 100 µM | > 100 µM |  | > 100 µM | > 100 µM |  |  |  |  |  |  |  |  |  | 
Cc1c(C(=O)c2ccccc2C(=O)O)c2ccccc2n1C | > 100 µM | > 100 µM | > 100 µM | > 100 µM | > 100 µM | > 100 µM | > 100 µM |  | > 100 µM |  |  |  |  |  |  |  |  |  |  | 
CC(=O)O[C@H]1CC[C@@]2(C)C(=CC[C@H]3[C@@H]4C/C(=C\c5cccc(OCCN6CCOCC6)c5)[C@H](OC(C)=O)[C@@]4(C)CC[C@@H]32)C1 | 20.5 µM | 48.7 µM | 19.3 µM | 14.2 µM | 18.9 µM | > 100 µM | 11.5 µM |  | 16.7 µM | 18.4 µM | 5.05 µM | 6.43 µM | 3.84 µM | 5.91 µM | 3.87 µM | 44.7 µM | 2.95 µM | 5.94 µM |  | 11.6 µM
O=c1cc2ccccc2nn1Cc1ccccc1Cl | > 100 µM | > 100 µM | > 100 µM | > 100 µM | > 100 µM | > 100 µM | > 100 µM |  | > 100 µM | > 100 µM |  |  |  |  |  |  |  |  |  | 
